Reference: paper PMC6600393, “Synthesis and Cytostatic Effect of 3’-deoxy-3’-C-Sulfanylmethyl Nucleoside Derivatives with D-xylo Configuration” (Molecules, 2019)

Legend:
[1] = test system: SCC; set-up: method as in PMID 20947470; details: positive control; ref [36]; cited from earlier work
[2] = test system: SCC cells; assay: DAPI fluorescent microscopy of nucleus morphology, SCC; type: cell-based, mouse; details: 17.0 µM, 48 h, vs DMSO control
Description: (§1) In our experiments 4’,6-diamidino-2-phenylindole (DAPI) fluorescent DNA dye has been used for studying the cell nucleus morphology as an indicator of genotoxicity. The HaCaT and SCC cells were treated with DMSO and compound 10, fixed and stained with DAPI, then examined with fluorescent microscopy (Figure 7 and Figure 8).
(§2) For fluorescence staining, cells were breeded in the ibidi microscope slide chamber. The sample preparation process was similar to that of TLS studies, except that after 48 h the samples were fixed with PFA and washed with PBS and left to dry at room temperature overnight. DAPI dye was used for fluorescencnt labbelling of A-T rich regions of DNA.
(§3) Dehydrated slides containing fixated cells were mounted in 35 μL DAPI-Antifade Medium under 24 × […] coverslips. Fluorescence of DAPI (4′,6-diamidino-2-phenylindole) was monitored by fluorescence microscopy (Carl Zeiss Compound Universal Microscope III RS).

[3] = test system: HaCaT cells; assay: DAPI fluorescent microscopy of nucleus morphology, HaCaT; type: cell-based, human; details: 17.0 µM, 48 h, vs DMSO control
Description: as §1, §2, §3

[4] = test system: HaCaT cells; assay: Time-lapse video-microscopy: generation time, HaCaT; type: cell-based, human
Description: (§4) Dynamic functional and morphological effects of compound 10 was investigated via time-lapse (1 frame/min) videomicroscopy under standard cell-breeding conditions. Low intensity, near-infrared (NIR) 940 nm illumination was used, for reduced phototoxicity. Parallel experiments were done in the same CO2 incubator, using two custom-built inverted microscope equipped with sensitive charge-coupled device (CCD) sensors. […] Image sequences were processed and quantitatively analyzed using NIH ImageJ open-source software-bundle. Cell size, cellular generation time, and cell growth of HaCaT and SCC cells were analyzed. Time-lapse video-microscopy record about the effect of 10 and DMSO control on HaCaT and SCC cell lines are available in Supplementary Materials.
For the investigation of the effect of compound 10 on cell-cycle, cellular generation times were measured from time-lapse image sequences.
In LTS video-microscopy studies, ~500.000/350.000 starting cell numbers (T-25 cell culture flask) had been used. Cell cultures had been treated with compound 10 using the IC50 concentration corresponding to the SCC VII.
TLS system architecture: Using the TLS system, various parameters had been tested. Control, DMSO control, and IC50 concentration of compound 10 compared to the above. Based on literature data, 1% (v/v) is the amount that is tolerated even without significant change in cells. […]

[5] = test system: SCC-VII (mouse squamous carcinoma) cell line; assay: MTT cell viability assay on SCC-VII cells; type: cell-based
Description: (§5) For the investigation of the cytotoxic effect of nucleoside analogues we used healthy human keratinocyte (HaCaT) and tumorous squamous carcinoma SCC-VII cell lines. In the experiments, a standard citotoxicity assay, the MTT assay, was used in a 96-well plate. Importantly, different cell numbers were used in the case of the two different cell lines. The HaCaT cells were seeded 10^4/well concentration while the SCC-VII cells were seeded 5000/well concentration on the plate. In both cases the cells were treated with the nucleoside analogues at ~50% confluence.
SCC-VII is a carcinoma tumor that originally arose in the abdominal wall of C3H mice in Dr. Herman Suit’s laboratory at Harvard University, Boston, Massachusetts. SCC VII cells were grown in Dulbecco’s Modified Eagle’s Medium Nutrient Mixture (DMEM-HAM’S F12) (Sigma-Aldrich) supplemented with 2 mM L-glutamine, 23 mM NaHCO3, 100 U/mL penicillin, 100 U/mL streptomycin 1% non-essential amino acids and 10% fetal bovine serum.
(§6) Cell cultures had been kept under the same conditions during the experiments. Cells were stored at 37 °C, 95% humidity, and 5% CO2 in an incubator. During the MTT-assay, different starter cell number was used because of the cell cycle differences; HaCaT was started with 10.000/well meanwhile SCC VII with 5000/well. After passage, 24 h was assured for the cells to the adhesion. Then incubated with the compounds for 48 h. The experiments were performed in 96 well plates.
(§7) For the dilution of different concentrations of nucleoside analogues were prepared with DMSO 1% (v/v) and DMEM / DMEM-F12/Ham’s F12 cell culture medium.
(§8) After three days of incubation in the cell culture flask, cells were trypsinised into single cell suspensions. Aliquots (200 μL) of each cell suspension were placed in wells of 96-well-plates (Biocenter, Szeged, Hungary). Preliminary tests were conducted with cell numbers 5000 (SCC-VII) and 10,000 (HaCaT) per well. We have been tested five concentrations of each nucleoside analogues (20-10-5-2.5-1.25 µg/mL). The nucleoside analogues were dissolved in DMSO (1 v/v%) and DMEM/ DMEM-F12/Ham’s F12 were added to the wells to produce the required concentrations and the cells were similarly incubated for a further 48 h.
(§9) MTT (Sigma Aldrich, Budapest, Hungary) solution (0.5 mg/mL in PBS) 100 µL was added to each well. The plates were incubated for 1–2 h at 37 ^◦C, the wells aspirated, and MTT formazan extracted with 100 µL of DMSO aided by gentle agitation on a shaker. After 10 min at room temperature, the absorbances were read at 570 nm by an automatic plate reader (WALLAC Victor 2 1420 spectrophotometer), the instrument having been blanked beforehand on a row to which cells had not been added. Percentage viability (respiratory competence) of the population of cells in each well was expressed as: (Absorbance of treated cells/Absorbance of control cells) × 100. IC50 values of the nucleoside analogues were determined by Graphpad.

[6] = test system: HaCaT (human keratinocyte) cell line; assay: MTT cell viability assay on HaCaT cells; type: cell-based; details: Homo sapiens, HaCaT, 48 h
Description: as §5
The HaCaT cell line was derived from human skin, the cells spontaneously transformed in vitro during long time incubation. Cells were cultured in DMEM medium (Biocenter, Szeged, Hungary) containing 10% fetal bovine serum (FBS, Hyclon, Logan, UT) and 1% antibiotic-antimycotic mix (Penicillin–Streptomycin–Neomycin).
as §6, §7, §8, §9

[7] = test system: SCC cells; assay: Time-lapse video-microscopy: mother cell size, SCC; type: cell-based, mouse
Description: as §4
Each cell line was treated with 17.0 µM solution of compound 10, dissolved in 1% (v/v) DMSO and diluted with cell culture media before application. Then, 1% (v/v) DMSO was used as control. […]
Mother cells size measurement: • Opening the image sequence in 8-bit format. • Stack Deflicker: The Stack Deflicker calculates the average grey value for each frame and normalizes all frames so that they have the same average grey level as a specified frame of the stack. […] If a region of the stack is selected the average frame intensity will be calculated from this region. • Changing the brightness/contrast, if it is neccesary. • Subtrack background: Removes smooth continuous backgrounds from gels and other images. […] A ball of given radius is rolled over the bottom side of this surface; the hull of the volume reachable by the ball is the background to be subtracted. • Treshold: Use this tool to automatically or interactively set lower and upper threshold values, segmenting grayscale images into features of interest and background. • Divided cells were selected on the binary image sequence based on their circularity determined by area/perimeter ratio. • Bigger pre-division mother cells were separated from smaller post-division daughter cells. • Pixel size was calibrated with Burker chamber. • Area calculation from pixel^2 to µm^2.

[8] = test system: HaCaT cells; assay: Time-lapse video-microscopy: mother cell size, HaCaT; type: cell-based, human
Description: as §4, with “Materials. […]” for “Materials.”
Mother cells size measurement: • Opening the image sequence in 8-bit format. • Stack Deflicker: The Stack Deflicker calculates the average grey value for each frame and normalizes all frames so that they have the same average grey level as a specified frame of the stack. […] If a region of the stack is selected the average frame intensity will be calculated from this region. • Changing the brightness/contrast, if it is neccesary. • Subtrack background: Removes smooth continuous backgrounds from gels and other images. […]

Row | SMILES | IC50 [1] | nucleus morphology (DAPI), genotoxicity [2] | nucleus morphology (DAPI) [3] | Treated/DMSO Difference (generation time) ([4]; 17.0 µM) | Treated Cells Gen. Time ([4]; 17.0 µM compound 10, n = 15) | SI (selectivity index) ([5]; HaCaT IC50/SCC IC50) | IC50 ([5]; Mus musculus, 48 h) | IC50 [6] | overall size change difference between the two cell lines ([7]; HaCaT vs SCC mother cells, 17.0 µM) | Treated Cells Size (mother cells) ([7]; SCC, 17.0 µM compound 10, n = 15) | Treated/DMSO Difference (mother cell size) ([7]; SCC, 17.0 µM, (treated cells size/DMSO control cell size)*100-100) | mother cell size-reduction vs. DMSO ([8]; 17.0 µM) | Treated Cells Size (mother cells) ([8]; 17.0 µM compound 10, n = 15)
1 | O=c1[nH]cc(F)c(=O)[nH]1 [Compound 5-FU, 5-fluorouracil] | 60.7 ± 8.45 µM | – | – | – | – | – | – | – | – | – | – | – | –
2 | CCCCSC[C@@H]1[C@@H](O[Si](C)(C)C(C)(C)C)[C@H](n2cc(C)c(=O)[nH]c2=O)O[C@@H]1CO[Si](C)(C)C(C)(C)C [Compound 10, 1-[3’-Deoxy-3’-C-(n-butylsulfanylmethyl)-2’,5’-di-O-(tert-butyldimethylsilyl)-β-D-xylofuranosyl]-thymine] | – | genotoxic effect | no apparent difference | 20.8% | 21.67 ± 1.01 h | 1.64 | 17 ± 1.55 µM | 27.9 ± 1.85 µM | ~ 21% | 21.44 ± 1.42 µm^2 | 12.8% | 9% | 21.60 ± 1.93 µm^2
